Assay results reported in publication PMC4441817 (Bioorganic & medicinal chemistry letters, 2012).

How the values were obtained:
[1] = system: human myeloma RPMI-8226 cell line; test: cells; settings: RPMI-8226, 48 h, read-out: MTT IC50
[2] = molecular target: T1, geranylgeranyl transferase II (GGTase II) (Homo sapiens, UniProt P53611+Q92696); assay type: biochemical; settings: recombinant enzyme
T1 sequence (Q92696 1-567): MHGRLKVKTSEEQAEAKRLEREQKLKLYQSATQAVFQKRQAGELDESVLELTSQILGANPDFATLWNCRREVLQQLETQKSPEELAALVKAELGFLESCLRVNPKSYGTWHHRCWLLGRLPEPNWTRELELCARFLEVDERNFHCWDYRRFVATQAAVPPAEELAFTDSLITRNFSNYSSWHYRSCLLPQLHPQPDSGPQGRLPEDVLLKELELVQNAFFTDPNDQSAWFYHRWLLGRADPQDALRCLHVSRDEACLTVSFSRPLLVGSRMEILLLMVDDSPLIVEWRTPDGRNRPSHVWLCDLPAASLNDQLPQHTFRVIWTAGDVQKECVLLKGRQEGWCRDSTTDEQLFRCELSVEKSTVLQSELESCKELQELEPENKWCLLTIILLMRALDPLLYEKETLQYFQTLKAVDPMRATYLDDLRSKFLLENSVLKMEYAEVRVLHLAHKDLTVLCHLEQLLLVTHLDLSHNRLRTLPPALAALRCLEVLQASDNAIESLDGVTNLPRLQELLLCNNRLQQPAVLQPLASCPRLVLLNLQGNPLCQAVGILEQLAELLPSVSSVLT
T1 sequence (P53611 1-331): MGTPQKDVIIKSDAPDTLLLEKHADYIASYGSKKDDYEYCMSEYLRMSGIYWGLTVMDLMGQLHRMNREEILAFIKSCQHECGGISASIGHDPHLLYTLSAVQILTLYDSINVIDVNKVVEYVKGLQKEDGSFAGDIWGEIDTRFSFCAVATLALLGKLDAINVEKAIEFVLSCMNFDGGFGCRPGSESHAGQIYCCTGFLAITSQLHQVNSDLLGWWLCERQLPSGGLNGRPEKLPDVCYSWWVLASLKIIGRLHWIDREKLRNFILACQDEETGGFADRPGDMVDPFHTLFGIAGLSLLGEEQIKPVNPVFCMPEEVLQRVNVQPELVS

GGTase II = settings: cited from earlier work
[3] = cited from earlier work
[4] = system: protein farnesylation or geranylgeranylation; test: Cellular assays of protein farnesylation or geranylgeranylation; assay type: cell-based; settings: data not shown
[5] = system: human myeloma RPMI-8226 cell line; settings: RPMI-8226 cells, 48 hr incubation

Structure (SMILES) | IC50 [1] [µM] | activity as a GGTase II inhibitor (in words) [2] | further results
O=P(O)(O)C(Cc1cn(Cc2ccccc2)nn1)P(=O)(O)O [Compound 11a] | > 1000 | – | –
CC(C)=CCC/C(C)=C/CCC(C)=CCn1cc(CC(P(=O)([O-])[O-])P(=O)([O-])[O-])nn1.[Na+].[Na+].[Na+].[Na+] [Compound 11d] | 900 | modest activity | –
O=C(O)C(O)(Cc1cccnc1)P(=O)(O)O (stereo not drawn) [Compound 3-PEHPC] | – | – | selectivity for GGTase II (in words) (GGTase II): good selectivity for GGTase II; concentrations required to observe cellular effects [3]: millimolar concentrations are required
CC(C)=CCC/C(C)=C/CC/C(C)=C/CCC(C)=CCn1cc(CC(P(=O)([O-])[O-])P(=O)([O-])[O-])nn1.[Na+].[Na+].[Na+].[Na+] [Compound 11e] | 1000 | most active compound | –
CC(C)=CCCC(C)=CCn1cc(CC(P(=O)([O-])[O-])P(=O)([O-])[O-])nn1.[Na+].[Na+].[Na+].[Na+] [Compound 11c] | > 1000 | no activity | –
O=C(O)C(O)(Cc1cnc2ccccn12)P(=O)(O)O (single isomer, unassigned; (+)) [(+)-3-IPEHPC] | – | – | potency relative to 3-PEHPC (GGTase II): more potent than 3-PEHPC; type of inhibition with respect to GGPP (GGTase II): mixed-type inhibitor; type of inhibition with respect to Rab (GGTase II): uncompetitive inhibitor
O=P([O-])([O-])C(Cc1cn(Cc2ccc3ccccc3c2)nn1)P(=O)([O-])[O-].[Na+].[Na+].[Na+].[Na+] [Compound 11b] | 200 | – | effect on protein farnesylation or geranylgeranylation [4]: does not affect protein farnesylation or geranylgeranylation; cytotoxic potency in the MTT assay (in words) [5]: most potent
